Numbers after ± are expanded uncertainties.
Key:
[1] = 101 kPa, Liquid
[2] = molar heat capacity at constant pressure; conditions: 101 kPa, Liquid
[3] = xn = mol fraction of the nth substance listed; conditions: 101 kPa, Liquid
[4] = molar heat capacity at constant pressure; xn = mol fraction of the nth substance listed; conditions: 101 kPa, Liquid

Structure (SMILES) | mass density ([1]; 293.15 K) [kg/m3] | mass density ([1]; 298.15 K) [kg/m3] | mass density ([1]; 303.15 K) [kg/m3] | mass density ([1]; 308.15 K) [kg/m3] | mass density ([1]; 313.15 K) [kg/m3] | mass density ([1]; 318.15 K) [kg/m3] | molar heat capacity at constant pressure ([2]; 293.15 K) [J/K/mol] | molar heat capacity at constant pressure ([2]; 298.15 K) [J/K/mol] | molar heat capacity at constant pressure ([2]; 303.15 K) [J/K/mol] | molar heat capacity at constant pressure ([2]; 308.15 K) [J/K/mol] | molar heat capacity at constant pressure ([2]; 313.15 K) [J/K/mol] | molar heat capacity at constant pressure ([2]; 318.15 K) [J/K/mol] | mass density ([3]; 308.15 K, x2 = 0) [kg/m3] | molar heat capacity at constant pressure ([4]; 293.15 K, x2 = 0) [J/K/mol] | molar heat capacity at constant pressure ([4]; 298.15 K, x2 = 0) [J/K/mol] | molar heat capacity at constant pressure ([4]; 303.15 K, x2 = 0) [J/K/mol] | molar heat capacity at constant pressure ([4]; 308.15 K, x2 = 0) [J/K/mol] | molar heat capacity at constant pressure ([4]; 313.15 K, x2 = 0) [J/K/mol] | molar heat capacity at constant pressure ([4]; 318.15 K, x2 = 0) [J/K/mol] | further results
CCCC[n+]1cccc(C)c1.F[B-](F)(F)F [1-butyl-3-methylpyridinium tetrafluoroborate] | 1188.6 ± 7 | 1185.2 ± 6.9 | 1181.7 ± 6.8 | 1178.3 ± 6.7 | 1174.9 ± 6.6 | 1171.6 ± 6.6 | 385.8 ± 12 | 387.7 ± 12 | 390.1 ± 12 | 392.8 ± 12 | 395.9 ± 12 | 399.3 ± 12 |  |  |  |  |  |  |  | 
CCCC[n+]1cccc(C)c1.F[B-](F)(F)F [1-butyl-3-methylpyridinium tetrafluoroborate] + C[N+](=O)[O-] |  |  |  |  |  |  |  |  |  |  |  |  |  |  |  |  |  |  |  | mass density ([3]; 293.15 K, x1 = 1): 1188.6 ± 3.6 kg/m3; mass density ([3]; 298.15 K, x1 = 1): 1185.2 ± 3.6 kg/m3; mass density ([3]; 303.15 K, x1 = 1): 1181.7 ± 3.5 kg/m3; mass density ([3]; 308.15 K, x1 = 1): 1178.3 ± 3.5 kg/m3; mass density ([3]; 313.15 K, x1 = 1): 1174.9 ± 3.5 kg/m3; mass density ([3]; 318.15 K, x1 = 1): 1171.6 ± 3.4 kg/m3; molar heat capacity at constant pressure ([4]; 293.15 K, x1 = 1): 385.8 ± 12 J/K/mol; molar heat capacity at constant pressure ([4]; 298.15 K, x1 = 1): 387.7 ± 12 J/K/mol; molar heat capacity at constant pressure ([4]; 303.15 K, x1 = 1): 390.1 ± 12 J/K/mol; molar heat capacity at constant pressure ([4]; 308.15 K, x1 = 1): 392.8 ± 12 J/K/mol; molar heat capacity at constant pressure ([4]; 313.15 K, x1 = 1): 395.9 ± 12 J/K/mol; molar heat capacity at constant pressure ([4]; 318.15 K, x1 = 1): 399.3 ± 12 J/K/mol
CCO [ethanol] | 789.6 ± 3.7 | 785.3 ± 3.7 | 781 ± 3.8 | 776.7 ± 3.8 | 772.3 ± 3.9 | 767.8 ± 3.9 | 111.3 ± 3.4 | 113.3 ± 3.5 | 115.3 ± 3.6 | 117.5 ± 3.6 | 119.7 ± 3.7 | 122.1 ± 3.8 |  |  |  |  |  |  |  | 
CCO [ethanol] + CCCC[n+]1cccc(C)c1.F[B-](F)(F)F |  |  |  |  |  |  |  |  |  |  |  |  | 776.7 ± 3.8 | 111.3 ± 3.4 | 113.3 ± 3.5 | 115.3 ± 3.6 | 117.5 ± 3.6 | 119.7 ± 3.7 | 122.1 ± 3.8 | mass density ([3]; 293.15 K, x2 = 0): 789.6 ± 3.7 kg/m3; mass density ([3]; 298.15 K, x2 = 0): 785.3 ± 3.7 kg/m3; mass density ([3]; 303.15 K, x2 = 0): 781 ± 3.8 kg/m3; mass density ([3]; 313.15 K, x2 = 0): 772.3 ± 3.9 kg/m3; mass density ([3]; 318.15 K, x2 = 0): 767.8 ± 3.9 kg/m3
C[N+](=O)[O-] [nitromethane] | 1140.2 ± 3.3 | 1133.4 ± 3.2 | 1126.6 ± 3.1 | 1119.7 ± 3.1 | 1112.9 ± 3 | 1106 ± 2.9 | 106.6 ± 3.3 | 106.9 ± 3.3 | 107.3 ± 3.3 | 107.7 ± 3.3 | 108.2 ± 3.4 | 108.6 ± 3.4 |  |  |  |  |  |  |  | 
O [water] + CCCC[n+]1cccc(C)c1.F[B-](F)(F)F |  |  |  |  |  |  |  |  |  |  |  |  | 994.1 ± 2.3 | 75.4 ± 2.3 | 75.3 ± 2.3 | 75.3 ± 2.3 | 75.2 ± 2.3 | 75.2 ± 2.3 | 75.3 ± 2.3 | 

Source: the NIST ThermoML archive (doi:10.1021/je7002836)
